What was measured:
Test in all cases: relative viability (nuclei count vs DMSO), 5 days (fraction); higher = more cells survive
A549 = system: A549
Method in brief: (§1)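 Dosing by pin tool came one day after lung cancer cell lines were seeded in 1536-well plates, using either one drug or a fixed anchor-drug dose plus five library-drug doses (not always all listed) in √10 steps. After 5 days, nuclei were counted on 4× images. Relative viability is treated-well nuclei count divided by vehicle-well nuclei count, and values are medians of duplicate plates.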

Calu-6 = system: Calu-6
Method in brief: as §1

EBC-1 = system: EBC-1
Method in brief: as §1

IA-LM = system: IA-LM
Method in brief: as §1

LCLC-97TM1 = system: LCLC-97TM1
Method in brief: as §1

NCI-H1299 = system: NCI-H1299
Method in brief: as §1

NCI-H1355 = system: NCI-H1355
Method in brief: as §1

NCI-H1623 = system: NCI-H1623
Method in brief: as §1

NCI-H1703 = system: NCI-H1703
Method in brief: as §1

NCI-H1993 = system: NCI-H1993
Method in brief: as §1

NCI-H23 = system: NCI-H23
Method in brief: as §1

NCI-H322M = system: NCI-H322M
Method in brief: as §1

NCI-H596 = system: NCI-H596
Method in brief: as §1

UMC-11 = system: UMC-11
Method in brief: as §1

NCI-H1648 = system: NCI-H1648
Method in brief: as §1

SMILES: COc1nc(C)cnc1NS(=O)(=O)c1cccnc1-c1ccc(-c2nnco2)cc1 [Zibotentan] + COc1cc2c(Oc3ccc(NC(=O)C4(C(=O)Nc5ccc(F)cc5)CC4)cc3F)ccnc2cc1OCCCN1CCOCC1 [Foretinib] (partner 0.25 µM)
- relative viability (A549; first compound 0.08 µM): 1.02
- relative viability (A549; first compound 0.253 µM): 0.916
- relative viability (A549; first compound 0.8 µM): 1.1
- relative viability (A549; first compound 2.53 µM): 1.1
- relative viability (Calu-6; first compound 0.08 µM): 0.811
- relative viability (Calu-6; first compound 0.253 µM): 0.947
- relative viability (Calu-6; first compound 0.8 µM): 0.849
- relative viability (Calu-6; first compound 2.53 µM): 0.895
- relative viability (EBC-1; first compound 0.08 µM): 0.0991
- relative viability (EBC-1; first compound 0.253 µM): 0.0961
- relative viability (EBC-1; first compound 0.8 µM): 0.103
- relative viability (EBC-1; first compound 2.53 µM): 0.113
- relative viability (IA-LM; first compound 0.08 µM): 1.06
- relative viability (IA-LM; first compound 0.253 µM): 1.15
- relative viability (IA-LM; first compound 0.8 µM): 1.09
- relative viability (IA-LM; first compound 2.53 µM): 1.3
- relative viability (LCLC-97TM1; first compound 0.08 µM): 1.01
- relative viability (LCLC-97TM1; first compound 0.253 µM): 0.891
- relative viability (LCLC-97TM1; first compound 0.8 µM): 1
- relative viability (LCLC-97TM1; first compound 2.53 µM): 0.926
- relative viability (NCI-H1299; first compound 0.08 µM): 1.11
- relative viability (NCI-H1299; first compound 0.253 µM): 1.05
- relative viability (NCI-H1299; first compound 0.8 µM): 1.05
- relative viability (NCI-H1299; first compound 2.53 µM): 1.13
- relative viability (NCI-H1355; first compound 0.08 µM): 0.988
- relative viability (NCI-H1355; first compound 0.253 µM): 1.02
- relative viability (NCI-H1355; first compound 0.8 µM): 0.955
- relative viability (NCI-H1355; first compound 2.53 µM): 0.927
- relative viability (NCI-H1623; first compound 0.08 µM): 0.84
- relative viability (NCI-H1623; first compound 0.253 µM): 0.765
- relative viability (NCI-H1623; first compound 0.8 µM): 0.855
- relative viability (NCI-H1623; first compound 2.53 µM): 0.771
- relative viability (NCI-H1703; first compound 0.08 µM): 0.422
- relative viability (NCI-H1703; first compound 0.253 µM): 0.347
- relative viability (NCI-H1703; first compound 0.8 µM): 0.395
- relative viability (NCI-H1703; first compound 2.53 µM): 0.314
- relative viability (NCI-H1993; first compound 0.08 µM): 0.753
- relative viability (NCI-H1993; first compound 0.253 µM): 0.811
- relative viability (NCI-H1993; first compound 0.8 µM): 0.702
- relative viability (NCI-H1993; first compound 2.53 µM): 0.832
- relative viability (NCI-H23; first compound 0.08 µM): 1.08
- relative viability (NCI-H23; first compound 0.253 µM): 0.766
- relative viability (NCI-H23; first compound 0.8 µM): 0.986
- relative viability (NCI-H23; first compound 2.53 µM): 1.17
- relative viability (NCI-H322M; first compound 0.08 µM): 1.03
- relative viability (NCI-H322M; first compound 0.253 µM): 0.782
- relative viability (NCI-H322M; first compound 0.8 µM): 0.98
- relative viability (NCI-H322M; first compound 2.53 µM): 1.02
- relative viability (NCI-H596; first compound 0.08 µM): 0.899
- relative viability (NCI-H596; first compound 0.253 µM): 0.794
- relative viability (NCI-H596; first compound 0.8 µM): 0.768
- relative viability (NCI-H596; first compound 2.53 µM): 0.914
- relative viability (UMC-11; first compound 0.08 µM): 1.05
- relative viability (UMC-11; first compound 0.253 µM): 0.92
- relative viability (UMC-11; first compound 0.8 µM): 0.991
- relative viability (UMC-11; first compound 2.53 µM): 1.04

SMILES: O=c1cc(-c2cccc3c2Sc2ccccc2S3)oc(N2CCOCC2)c1 + COc1cccc2cc(-c3nc([C@H]4CC[C@H](C(=O)O)CC4)n4ncnc(N)c34)[nH]c12 [OSI-027] (partner 0.5 µM)
- relative viability (LCLC-97TM1; first compound 0.08 µM): 0.48
- relative viability (LCLC-97TM1; first compound 0.253 µM): 0.407
- relative viability (LCLC-97TM1; first compound 0.8 µM): 0.539
- relative viability (LCLC-97TM1; first compound 2.53 µM): 0.519
- relative viability (LCLC-97TM1; first compound 8 µM): 0.575
- relative viability (NCI-H1355; first compound 0.08 µM): 0.402
- relative viability (NCI-H1355; first compound 0.253 µM): 0.376
- relative viability (NCI-H1355; first compound 0.8 µM): 0.335
- relative viability (NCI-H1355; first compound 2.53 µM): 0.338
- relative viability (NCI-H1355; first compound 8 µM): 0.33
- relative viability (NCI-H1623; first compound 0.08 µM): 0.593
- relative viability (NCI-H1623; first compound 0.253 µM): 0.447
- relative viability (NCI-H1623; first compound 0.8 µM): 0.346
- relative viability (NCI-H1623; first compound 2.53 µM): 0.431
- relative viability (NCI-H1623; first compound 8 µM): 0.374
- relative viability (NCI-H1648; first compound 0.08 µM): 0.264
- relative viability (NCI-H1648; first compound 0.253 µM): 0.257
- relative viability (NCI-H1648; first compound 0.8 µM): 0.277
- relative viability (NCI-H1648; first compound 2.53 µM): 0.22
- relative viability (NCI-H1648; first compound 8 µM): 0.252
- relative viability (NCI-H1993; first compound 0.08 µM): 0.539
- relative viability (NCI-H1993; first compound 0.253 µM): 0.543
- relative viability (NCI-H1993; first compound 0.8 µM): 0.548
- relative viability (NCI-H1993; first compound 2.53 µM): 0.562
- relative viability (NCI-H1993; first compound 8 µM): 0.637
- relative viability (NCI-H23; first compound 0.08 µM): 0.511
- relative viability (NCI-H23; first compound 0.253 µM): 0.739
- relative viability (NCI-H23; first compound 0.8 µM): 0.519
- relative viability (NCI-H23; first compound 2.53 µM): 0.54
- relative viability (NCI-H23; first compound 8 µM): 0.697
- relative viability (NCI-H322M; first compound 0.08 µM): 0.524
- relative viability (NCI-H322M; first compound 0.253 µM): 0.588
- relative viability (NCI-H322M; first compound 0.8 µM): 0.618
- relative viability (NCI-H322M; first compound 2.53 µM): 0.44
- relative viability (NCI-H322M; first compound 8 µM): 0.543
- relative viability (NCI-H596; first compound 0.08 µM): 0.69
- relative viability (NCI-H596; first compound 0.253 µM): 0.803
- relative viability (NCI-H596; first compound 0.8 µM): 0.695
- relative viability (NCI-H596; first compound 2.53 µM): 0.683
- relative viability (NCI-H596; first compound 8 µM): 0.662
- relative viability (UMC-11; first compound 0.08 µM): 0.546
- relative viability (UMC-11; first compound 0.253 µM): 0.562
- relative viability (UMC-11; first compound 0.8 µM): 0.457
- relative viability (UMC-11; first compound 2.53 µM): 0.429
- relative viability (UMC-11; first compound 8 µM): 0.514

SMILES: COc1nc(C)cnc1NS(=O)(=O)c1cccnc1-c1ccc(-c2nnco2)cc1 [Zibotentan] + Cc1cc(Nc2cc(N3CCN(C)CC3)nc(Sc3ccc(NC(=O)C4CC4)cc3)n2)n[nH]1 [Tozasertib] (partner 0.1 µM)
- relative viability (LCLC-97TM1; first compound 0.08 µM): 0.228
- relative viability (LCLC-97TM1; first compound 0.253 µM): 0.237
- relative viability (LCLC-97TM1; first compound 0.8 µM): 0.21
- relative viability (LCLC-97TM1; first compound 2.53 µM): 0.233
- relative viability (NCI-H1355; first compound 0.08 µM): 0.626
- relative viability (NCI-H1355; first compound 0.253 µM): 0.537
- relative viability (NCI-H1355; first compound 0.8 µM): 0.55
- relative viability (NCI-H1355; first compound 2.53 µM): 0.565
- relative viability (NCI-H1623; first compound 0.08 µM): 0.464
- relative viability (NCI-H1623; first compound 0.8 µM): 0.43
- relative viability (NCI-H1623; first compound 2.53 µM): 0.427
- relative viability (NCI-H1648; first compound 0.08 µM): 0.499
- relative viability (NCI-H1648; first compound 0.253 µM): 0.403
- relative viability (NCI-H1648; first compound 0.8 µM): 0.47
- relative viability (NCI-H1648; first compound 2.53 µM): 0.576
- relative viability (NCI-H1993; first compound 0.08 µM): 0.591
- relative viability (NCI-H1993; first compound 0.253 µM): 0.583
- relative viability (NCI-H1993; first compound 0.8 µM): 0.592
- relative viability (NCI-H1993; first compound 2.53 µM): 0.606
- relative viability (NCI-H23; first compound 0.08 µM): 0.284
- relative viability (NCI-H23; first compound 0.253 µM): 0.331
- relative viability (NCI-H23; first compound 0.8 µM): 0.314
- relative viability (NCI-H23; first compound 2.53 µM): 0.413
- relative viability (NCI-H322M; first compound 0.08 µM): 0.464
- relative viability (NCI-H322M; first compound 0.253 µM): 0.479
- relative viability (NCI-H322M; first compound 0.8 µM): 0.496
- relative viability (NCI-H322M; first compound 2.53 µM): 0.534
- relative viability (NCI-H596; first compound 0.08 µM): 0.883
- relative viability (NCI-H596; first compound 0.253 µM): 0.846
- relative viability (NCI-H596; first compound 0.8 µM): 0.684
- relative viability (NCI-H596; first compound 2.53 µM): 1.07
- relative viability (UMC-11; first compound 0.08 µM): 0.23
- relative viability (UMC-11; first compound 0.253 µM): 0.204
- relative viability (UMC-11; first compound 0.8 µM): 0.201
- relative viability (UMC-11; first compound 2.53 µM): 0.203

— the supplement of paper PMC10307832
